Measurements as given in patent US9181249B2, “Substituted pyrido[3,4-b]pyrazines as GPR6 modulators” (Takeda Pharmaceutical Company Limited, priority 2013, dated 2015).
Marks after values point to notes of the source that are not given here.

Assays:
[1] = system: haloperidol-induced catalepsy; assay: Example B Haloperidol-Induced Catalepsy In Vivo Rodent Parkinson's Disease Model; conditions: Rat
Description: Haloperidol-Induced Catalepsy In Vivo Rodent Parkinson's Disease Model
The motor symptoms of Parkinson's disease include akinesia, bradykinesia, rigidity, tremor and postural abnormalities and are associated with the loss of nigral dopaminergic cells and a decline in striatal dopamine levels. Administration of haloperidol to rodents leads to a transient parkinsonian-like state that is reversed by the administration of L-Dopa (Duty, S.; Jenner, P. Br. J. Pharmacol. (2011), 164, 1357-1391) and other drugs that have been clinically validated for the treatment of Parkinson's disease. Haloperidol antagonizes dopamine D2 and, to a lesser extent, D1 receptors in medium spiny neurons that comprise the indirect and direct pathways of the motor circuit respectively. The resultant block of striatal dopamine transmission results in abnormal downstream firing within the basal ganglia circuits that is manifest as symptoms of muscle rigidity and catalepsy. Catalepsy has been postulated to reflect the clinical features of Parkinson's disease, whereby patients experience an inability of to initiate movements.
Male Sprague-Dawley rats (Charles River, Calco, Italy) weighing 175-200 g are used. Alternatively, male C57Bl6 mice weighing 25-35 g were used. The cataleptic state was induced by the subcutaneous administration of the dopamine receptor antagonist haloperidol (0.3 mg/kg, sc), 90 min before testing the animals on the vertical grid test. For this test, the rats or mice were placed on the wire mesh cover of a 25 cm×43 cm plexiglass cage placed at an angle of about 70 degrees with the bench table. The subject was placed on the grid with all four legs abducted and extended (“frog posture”). The use of such an unnatural posture is essential for the specificity of this test for catalepsy. The time span from placement of the paws until the first complete removal of one paw (descent latency) was measured maximally for 120 sec for rats. For mice, the front paws of a mouse was placed on a horizontal metal bar raised 2″ above a Plexiglas platform and time was recorded for up to 30 seconds per trial. The test ended when the animal's front paws returned to the platform or after 30 seconds. The test was repeated three times and the average of the three trials was reported as the intensity index of catalepsy.
Catalepsy was measured 30 min, 120 min, and/or 240 min after dosing the subjects a 0.3 mg/kg i.p. dose of haloperidol along with the GPR6 modulator test compound. Test compound plasma and brain levels were determined by collected tissue samples at the end of the experiment, which was either at the 120 or 240 min time point. A representative number of compounds of the invention were administered in a dose range from 0.1 to 100 mg/kg i.p, sc or po in conjunction with haloperidol. The A2a antagonist KW6002 (istradefylline) was dosed at 0.6 mg/kg i.p. as a positive control.

[2] = system: 6-hydroxydopamine lesioned rats (motor activity); assay: Example C 6-Hydroxydopamine Lesion Model In Vivo Rodent Parkinson's Disease Model; conditions: adult female rats, bilateral striatal 6-hydroxydopamine lesion, counts for 3 hours after dosing
Method: 6-Hydroxydopamine Lesion Model In Vivo Rodent Parkinson's Disease Model
Adult female rats (10) were first assessed for pre-surgery motor activity using an automated activity tracking system that records beam breaks across the testing arena floor. Beam breaks were summed over the first 3 hours after the animals were placed into the arena and recorded as activity counts. To selectively damage dopaminergic nerve terminals in the striatum, 20 μg of the 6-hydroxydopamine was injected directly into the striatum bilaterally (i.e., on both sides of the brain). After 4 weeks of recovery, the rats were again tested for motor activity, and a significant reduction in activity counts was observed. Vehicle and the compound of Example 47 (0.5% methylcellulose) was orally dosed at 0.1, 1.0, or 10 mg/kg in a cross-over study design (5-10 day wash out period), and after dosing activity counts were measured for 3 hours. At the end of the study period, when each animal had received each treatment once, the data were analyzed. The activity counts (standard error of the mean) for the group pre-surgery and post-surgery and for treated and vehicle control were determined and are provide in Table 3 below: […]

CC(=O)N1CCc2nc(N3CCC(Oc4ccc(F)cc4F)CC3)c(NC(C)C)nc2C1 [Example 47, 1-(2-(4-(2,4-difluorophenoxyl)piperidin-1-yl)-3-(isopropylamino)-7,8-dihydropyrido[3,4-b]pyrazin-6(5H)-yl)ethanone]
% reversal 30 min ([1]; 0.1 mpk i.p.): −5.7%
% reversal 120 min ([1]; 0.1 mpk i.p.): 27.3%
% reversal 30 min ([1]; 1 mpk i.p.): 39.1%
% reversal 120 min ([1]; 1 mpk i.p.): 57.9* %
% reversal 30 min ([1]; 10 mpk i.p.): 83.4* %
% reversal 120 min ([1]; 10 mpk i.p.): 76.5* %
% reversal 30 min ([1]; 30 mpk i.p.): 75.7* %
% reversal 120 min ([1]; 30 mpk i.p.): 82.1* %
activity counts, Mean ([2]; orally dosed 0.1 mg/kg): 11422*
activity counts, Mean ([2]; orally dosed 1.0 mg/kg): 15334*
activity counts, Mean ([2]; orally dosed 10 mg/kg): 19368*
